{
  "source": "patent US11320422B2",
  "about": "“Inhibition of protein degradation for improved production” (LONZA LTD, priority 2016, dated 2022)",
  "key": {"[1]": {"system": "GS KO Lonza host cells expressing cB72.3 monoclonal antibody", "test": "Cell line construction with MSX plus proteasome or ERAD inhibitors (Example 6), cB72.3 titre by Octet and western blot", "format": "cell-based, Chinese hamster", "settings": "for monoclonal antibody titre higher than control pool: 31.25 nM MG-132 and 37.5 μM MSX, 168 h of batch culture; for cell specific productivities compared to MSX control pools: MG-132 particularly 31.25 nM, various concentrations of epoxomicin and eeyarestatin", "procedure": "Multiple electroporations with 20 μg of linearized GS cB72.3 monoclonal antibody containing construct with 1×10^7 viable GS KO Lonza host cells were performed and pooled. This pool was then set up into 10 ml cultures, each containing approximately 0.25×10^6 cells and 10 μg DNA, and immediately placed in a static incubator at 37° C. with 5% CO2. Cell media consisted of commercially available CD-CHO media without glutamine and the addition of MSX and inhibitors as outlined below. 24 hours post transfection, MSX was added to the media to make the culture volume up to 15 ml and provide a final MSX concentration of 37.5 μM. The different inhibitors were then added to the pools a further 24 hours after the addition of MSX. A range of concentrations were added for each inhibitor to give the final concentrations in the flasks as described in FIG. 13. Only one inhibitor treatment was performed per flask (no combined treatments) and all were performed in combination with 37.5 μM MSX as outlined in FIG. 13.\nThe cell pools were then left in the static incubator at 37° C. and 5% CO2 until the viable cell concentration in the flask reached ˜0.2×10^6 cells/ml. When this viable cell number was achieved, cell pools were moved into 125 mL Erlenmeyer shake flasks and cultured in a 20 mL volume of CD-CHO including MSX and the appropriate concentration of inhibitor at 37° C. under a 5% CO2 in air environment with shaking at 140 rpm. 24 out of 33 transfections/pools were eventually moved across to shake flasks as they exceeded the required viable cell concentration described above.\nCell pools were then cultured in the presence of the appropriate inhibitor (and inhibitor concentration and 37.5 μM MSX) in 20 mL of CD-CHO for several passages (each being seeded at 0.2×10^6 viable cells/ml) before batch cultures were set up for each to assess the growth of the pool and to sample for product concentration over the duration of culture. For this purpose 20 ml batch cultures (seeded at 0.2×10^6 viable cells/ml) were sampled at 48, 96 and 168 hours for growth and titre information. The cell pools were also then passaged for an additional two passages in the absence of the inhibitors (but containing MSX) to determine if any changes in growth or productivity were observed, i.e. were the improved culture titres only maintained if the inhibitor was continually present."}, "[2]": {"test": "Initial assessment of inhibitor concentrations on recombinant CHO cell line growth (viable cell number, culture viability, ViCell)", "format": "cell-based, Chinese hamster", "settings": "Chinese hamster", "procedure": "(§1) 96 deep well plates (Nunc) were seeded at 4×10^6 cells/ml at 300 μl per well for analysis of proteasome and ERAD inhibitors. Triplicate wells were prepared for each inhibitor for each of the panel of cell lines. […] 100 μl of the well volume was combined with 900 μl PBS and a cell count performed using the ViCell apparatus. The remaining 200 μl was centrifuged at 1000 rpm for 5 minutes and the supernatant and pellet stored at −20° C. prior to further analysis.\n(§2) Initial assessment was performed across two experiments using one model recombinant CHO antibody producing cell line (CH0149) to determine the appropriate concentrations of each inhibitor to use for the assessment of the full panel (FIGS. 1A-1C and 2A-2F)."}, "[3]": {"system": "recombinant CHO antibody producing cell line (CH0149)", "test": "Initial assessment of inhibitor concentrations on recombinant CHO cell line growth (viable cell number, culture viability, ViCell)", "format": "cell-based, Chinese hamster", "procedure": "as §1, §2"}, "GS-KO CHO host cell line": {"system": "GS-KO CHO host cell line", "test": "Host selection/adaptation in presence of inhibitors, then transient transfection with cB72.3 (Example 8)", "format": "cell-based, Chinese hamster", "procedure": "In order to ascertain if adapted/selected host cells with the ability to produce enhanced recombinant protein yields and quality could be generated by culturing the Lonza GS-KO CHO host cell line in the presence of the protein degradation inhibitors, the GS-KO host cell line was cultured in the presence of various protein degradation inhibitors for a series of passages. The host cell line was therefore cultured in 20 ml CD-CHO+6 mM glutamine+the appropriate inhibitors as outlined below in 125 ml Erlenmeyer shake flasks at 37° C. under a 5% CO2 in air environment with shaking at 140 rpm. At each passage the new culture was seeded at 0.2×10^6 viable cells/ml. Cells were passaged when the cell number exceeded 1×10^6 viable cells per mL.\nHowever, cells in the presence of this concentration of MG132 were subjected to 4 passages at this concentration and then a further 2 in the absence of the drug. At this time there was sufficient cells for the transfection following passage of the cells without the drug (2nd experiment of the two) to be undertaken.\nTransient transfection of the emerging cell host pools described above was then performed via electroporation with 20 μg of the model cB72.3 plasmid and 1×10^7 viable cells and the cells placed in 20 ml of fresh CD-CHO media plus 6 mM glutamine in 125 ml Erlenmeyer shake flasks and cultured at 37° C. under a 5% CO2 in air environment with shaking at 140 rpm. This was undertaken for the host cell pools that had been in the presence of the inhibitors continually and those that had been passaged for an additional two passages in the absence of the inhibitors. Samples were taken from these batch cultures to monitor growth and antibody titre at 48, 96 and 168 hours post-transfection."}, "apoptosis": {"system": "apoptosis", "settings": "cited from earlier work"}, "[4]": {"system": "CHOK1 GS-KO cells producing antibody A", "test": "Cell line construction with MSX plus proteasome inhibitor selection (Example 5), growth and antibody concentration by ELISA / Protein A HPLC", "format": "cell-based, Chinese hamster", "procedure": "The electroporation was performed in the GSKO suspension cell line. A count was performed of the culture in mid exponential phase and the remaining culture centrifuged at 1000 rpm and the supernatant removed. 1×10^7 cells were required per electroporation cuvette in a volume of 700 μl. Therefore, the pellet was resuspended to achieve the concentration of cells for the number of electroporations required. Electroporations were performed with 20 μg linearized plasmid at 300 V, a capacitance of 900 μF and using cuvettes with a 4 mm gap. Each cuvette was added to 20 ml of fresh media with 2 ml of that volume used to rinse out the cuvette. For the cell line construction experiment, then all electroporations were pooled together to give a final volume of 300 ml. This was thoroughly mixed and then distributed in 10 ml volumes between 30×T75 tissue culture flasks. The flasks were then incubated statically at 36.5° C. with 5% CO2. 24 hours after the transfection, the glutamine synthetase inhibitor (MSX) was added to provide selection of the cells successfully taking up the plasmid and expressing the selection marker GS. 5 ml volumes of the MSX stocks with CD-CHO media were added to give either a final culture concentration of either 25, 37.5 or 50 μM MSX. The addition of the proteasome inhibitors was then performed at the appropriate time-point following MSX selection as determined by the design of experiments layout detailed in Table 3. Filter sterilized DMSO was added as a control where no drug was required in the combinations. Cultures were then incubated statically at 36.5° C. and 5% CO2 for approximately two weeks following addition of MSX. […] Once a viable cell concentration of at least 0.2×10^6 cells/ml was achieved, the cultures were moved into 20 ml shake flask cultures at 36.5° C. and 5% CO2 with shaking at 140 rpm. From this point onwards routine sub-culture was performed every 3-4 days.\nAffiniPure F(ab′)2 fragment goat anti-human IgG Fc fragment specific (minimal cross-reaction to bovine, horse, mouse serum proteins) (Jackson ImmunoResearch Laboratories Inc) was diluted in coating buffer (15 mM Na2CO3 and 35 mM NaHCO3, pH 9.7) to give a concentration of […]. 100 μl of the stock was then used to coat each well of 96 well plate (Nunc). Plates were covered with foil and stored at 4° C. overnight. […] Plates were again washed and ready-made TMB substrate (Cell signalling technology #7004) was added (100 μl/well). […] The optical density of each well was then measured at 450 nm. The concentration of the supernatant samples were then determined from the standard curve of the known concentrations of IgG. […]"}, "ER translocation": {"system": "ER translocation", "settings": "in vivo; cited from earlier work"}, "[5]": {"settings": "immediately after treatment with inhibitors"}, "[6]": {"settings": "two passages in the absence of inhibitors"}, "[7]": {"settings": "host initially cultured with Eeyarestatin I or 6.25 nM Epoxomicin, then 2 passages without inhibitor"}},
  "note": "Values joined by “and” are separate entries in the source; they are usually repeats but may differ in a detail not shown here. Identical values can stand only once. Where a SMILES comes first, the peptide text is derived from it. The star is where a group is joined. Cbz = O=C(OCc1ccccc1)*",
  "data": [
    {"compound": "CC(C)C[C@@H](C=O)NC(=O)[C@H](CC(C)C)NC(=O)[C@H](CC(C)C)NC(=O)OCc1ccccc1", "note": "[MG-132, Z-Leu-Leu-Leu-al] (Cbz-Leu-Leu-Leu-aldehyde)", "values": [
      {"measurement": "monoclonal antibody titre higher than control pool", "setting": "[1]; cells continually cultured with inhibitor", "result": "~4", "unit": "fold"},
      {"measurement": "monoclonal antibody titre higher than control pool", "setting": "[1]; two passages in the absence of inhibitor", "result": "~4", "unit": "fold"},
      {"measurement": "final inhibitor concentrations that resulted in the emergence of cell pools", "setting": "[1]; alongside 37.5 μM MSX", "result": "15.625 nM and 31.25 nM"},
      {"measurement": "cell specific productivities compared to MSX control pools", "setting": "[1]; [5]", "result": "enhanced"},
      {"measurement": "cell specific productivities compared to MSX control pools", "setting": "[1]; [6]", "result": "enhanced"},
      {"measurement": "cytotoxicity at 48 h", "setting": "[2]; 0.5 and 1 μM, 48 hours after addition, compared to control, read-out: decrease in viable cell number", "result": "~40", "unit": "%"},
      {"measurement": "cytotoxicity at 0.5 μM", "setting": "[2]; read-out: reduction of cell concentration and culture viability compared to control", "result": "30 to 60", "unit": "%"},
      {"measurement": "effect on culture viability and cell numbers", "setting": "[3]; 0.1 μM", "result": "less of an effect"},
      {"measurement": "reduction in the culture viability to", "setting": "[3]; 0.5 and 1 μM, 48 hours after addition", "result": "approximately 50%"},
      {"measurement": "cell numbers and culture viability", "setting": "[3]; 5 and 10 μM, 48 hours after addition", "result": "dramatically reduced"},
      {"measurement": "host cell growth in presence of inhibitor", "setting": "GS-KO CHO host cell line; 125 nM, transfection immediately after culture with drug", "result": "not sufficient cells"},
      {"measurement": "concentration shown to induce apoptosis", "setting": "apoptosis", "result": 1.5, "unit": "µM"},
      {"measurement": "increase in the amount of antibody in cell culture supernatant over MSX alone pools", "setting": "[4]; 0.0625 μM MG-132 and 37.5 μM MSX, 192 hours of batch culture", "result": "~4", "unit": "fold"},
      {"measurement": "viable cell counts following electroporation and cell line construction", "setting": "[4]; concentrations used in Example 2", "result": "poor viable cell counts"}
    ]},
    {"compound": "CC1(C)C(N(O)C(=O)Nc2ccc(Cl)cc2)N(c2ccc(Cl)cc2)C(=O)N1CC(=O)N/N=C/C=C/c1ccc([N+](=O)[O-])o1", "note": "(stereo not shown) [eeyarestatin I]", "values": [
      {"measurement": "concentration sufficient to block ER translocation", "setting": "ER translocation", "result": 8, "unit": "µM"},
      {"measurement": "cell specific productivities compared to MSX control pools", "setting": "[1]; [5]", "result": "enhanced"},
      {"measurement": "cell specific productivities compared to MSX control pools", "setting": "[1]; [6]", "result": "enhanced"},
      {"measurement": "decrease in viable cell number", "setting": "[3]; 1 μM, 48 hours after addition, two experiments", "result": "15-30%"},
      {"measurement": "effect on the culture viability parameters", "setting": "[3]; 10 μM, two experiments", "result": "consistently showed an effect"},
      {"measurement": "cell specific productivity and titre", "setting": "GS-KO CHO host cell line; 0.1 μM in culture media for selection/adaptation of host", "result": "increase in cell specific productivity and titre"},
      {"measurement": "transient antibody titres versus DMSO control cells", "setting": "GS-KO CHO host cell line; host cultured with 0.1 μM Eeyarestatin I before transfection", "result": "higher transient titres"},
      {"measurement": "transient antibody titres versus DMSO control cells", "setting": "GS-KO CHO host cell line; [7]", "result": "higher transient titres"}
    ]},
    {"compound": "CC[C@H](C)[C@H](NC(=O)[C@H]([C@@H](C)CC)N(C)C(C)=O)C(=O)N[C@H](C(=O)N[C@@H](CC(C)C)C(=O)[C@@]1(C)CO1)[C@@H](C)O", "note": "[epoxomicin]", "values": [
      {"measurement": "cell specific productivities compared to MSX control pools", "setting": "[1]; [5]", "result": "enhanced"},
      {"measurement": "cell specific productivities compared to MSX control pools", "setting": "[1]; [6]", "result": "enhanced"},
      {"measurement": "decrease in viable cell numbers", "setting": "[3]; 0.05 μM, 48 hours after addition, two experiments", "result": "30-50%"},
      {"measurement": "detrimental effects over time", "setting": "[3]; 0.01, 0.005 and 0.001 μM", "result": "not showing any detrimental effects until 72 hours"},
      {"measurement": "viable cell number", "setting": "[3]; 0.01, 0.005 and 0.001 μM", "result": "increase in viable cell number"},
      {"measurement": "decrease in viable cell number", "setting": "[3]; 0.5 and 1 μM, 48 hours after addition, compared to control", "result": 90, "unit": "%"},
      {"measurement": "transient antibody titres versus DMSO control cells", "setting": "GS-KO CHO host cell line; [7]", "result": "higher transient titres"},
      {"measurement": "increase in antibody concentration over control pools generated with MSX alone", "setting": "[4]; 0.025 μM epoxomicin and 37.5 μM MSX, 192 hours of batch culture", "result": "3-7 fold"},
      {"measurement": "maximum viable cell number", "setting": "[4]; pool CLC18 constructed with 0.025 μM epoxomicin and 37.5 μM MSX, batch culture without inhibitor", "result": "5.328×10^6 cells/ml"}
    ]}
  ]
}
